Converted amounts (≈) assume the structure as drawn.
Assays:
physchem = details: 37 °C, aqueous buffer, kinetic from dmso stock
Description: The resulting solutions were incubated at 37 °C. After 2 h incubation, the samples were read using a BMG LABTECH NEPHELOstar Plus laser nephelometer (Ortenberg, Germany).

[1] = molecular target: T1, human recombinant BACE-1 (hBACE-1) (Homo sapiens, UniProt P56817); test: In vitro hBACE-1 inhibition (fluorometric method); type: biochemical
T1 construct: purchased Invitrogen, Carlsbad, CA, USA
Description: The inhibition of human recombinant BACE-1 (hBACE-1) (Invitrogen, Carlsbad, CA, USA) by hybrids 4–7 was evaluated by a fluorometric method. The substrate (Panvera peptide, 10 μL, 250 nM final concentration) was added to a solution (10 μL) of hybrids 4–7 or buffer in control wells (20 mM sodium acetate at pH 4.5, with 0.1% w/v CHAPS). After the addition of the enzyme (10 μL, 12.91 mU), the assay solution was incubated for 1 h at 37 °C. Thereafter, STOP solution (10 μL, 2.5 M sodium acetate) was added and the fluorescence was read at […]. The DMSO concentration in the assay solution was kept <5% (v/v) to ensure no significant loss of BACE-1 activity. The background signal, determined in control wells with all the components of the assay but BACE-1, was subtracted. The fluorescence intensities in the presence of increasing concentrations or in the absence of hybrids 4–7 were compared to calculate the percent of enzyme inhibition produced by the compounds, by applying the following expression: 100 − (IFi/IFo × 100), in which IFi and IFo are the fluorescence intensities in the presence and in the absence of the compounds, respectively. Additionally, the IC50 values were calculated (GraphPad Prism 4.03 software, GraphPad Software Inc., San Diego, CA, USA) and are given as the mean ± SEM of at least two experiments, each performed in triplicate.

Aβ42 aggregation = molecular target: T2, Aβ42 aggregation (Homo sapiens, UniProt P05067); test: Aβ42 aggregation inhibition in genetically modified E. coli cells (Th-S fluorescence); type: cell-based, Escherichia coli; details: live E. coli cells overexpressing Aβ42
T2 construct: expressed in transfected cells; host or cells: E. coli BL21 (DE3) bearing pET28a-Aβ42
T2 sequence (P05067 672-713): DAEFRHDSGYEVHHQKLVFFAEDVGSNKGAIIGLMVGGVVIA
Description: For Aβ42 overexpression, M9 minimal medium (10 mL) containing kanamycin (50 μg/mL) was added to a colony of E. coli BL21 (DE3) competent cells, bearing the pET28a plasmid (Novagen, Inc., Madison, WI, USA), which contains the DNA sequence encoding for Aβ42. After overnight culture, the volume necessary to obtain a 1:500 dilution was added to fresh M9 minimal medium that contained kanamycin (50 μg/mL) and thioflavin-S (Th-S, 250 µM).
(§1) For Aβ42 overexpression, the corresponding E. coli cell cultures were kept growing overnight (37 °C; 250 rpm) until they reached an OD600 = 0.6. These cultures (980 μL) were added to a mixture of 10 μL of a solution of the new compounds in DMSO and 10 μL of 100 mM isopropyl 1-thio-β-D-galactopyranoside (IPTG), to reach a final compound concentration of 10 μM. The same procedure was used for tau overexpression but employing 10 μL of 25% arabinose instead of IPTG. The resulting E. coli cultures were kept growing overnight (37 °C; 1400 rpm) using an Eppendorf Thermomixer (Hamburg, Germany). To prepare a negative control for the assay, showing the highest amount of the amyloidogenic protein, the same quantity of DMSO, without the compounds to be tested, was added to the sample. With the double purpose of obtaining positive controls devoid of the amyloidogenic proteins and assessing the potential intrinsic toxicity of the new compounds, we also prepared samples that had not been treated with either IPTG or arabinose (non-induced samples).
(§2) To assess the inhibitory activity of compounds 4–7 on Aβ42 and tau aggregation within E. coli cells, a fluorescence assay was employed, using Th-S ([…] stock solution, T1892, Sigma, St. Louis, MO, USA) in double-distilled water (Milli-Q system, Millipore, Bay City, MI, USA) and an Aminco Bowman Series 2 luminescence spectrophotometer (Aminco-Bowman AB2, SLM Aminco, Rochester, NY, USA), working at 25 °C in the wavelength range of 460–600 nm, with λex = 445 nm, slit widths of 4 nm, and λem = 485 nm. The results are given as the average of nine independent experiments, each performed in triplicate.

tau aggregation = molecular target: T3, tau aggregation (Homo sapiens, UniProt P10636); test: Tau aggregation inhibition in genetically modified E. coli cells (Th-S fluorescence); type: cell-based, Escherichia coli; details: live E. coli cells overexpressing tau
T3 construct: expressed in transfected cells; host or cells: E. coli BL21 (DE3) bearing pTARA and pRKT42
T3 sequence (P10636 other isoform, or with tags, fused parts or gaps): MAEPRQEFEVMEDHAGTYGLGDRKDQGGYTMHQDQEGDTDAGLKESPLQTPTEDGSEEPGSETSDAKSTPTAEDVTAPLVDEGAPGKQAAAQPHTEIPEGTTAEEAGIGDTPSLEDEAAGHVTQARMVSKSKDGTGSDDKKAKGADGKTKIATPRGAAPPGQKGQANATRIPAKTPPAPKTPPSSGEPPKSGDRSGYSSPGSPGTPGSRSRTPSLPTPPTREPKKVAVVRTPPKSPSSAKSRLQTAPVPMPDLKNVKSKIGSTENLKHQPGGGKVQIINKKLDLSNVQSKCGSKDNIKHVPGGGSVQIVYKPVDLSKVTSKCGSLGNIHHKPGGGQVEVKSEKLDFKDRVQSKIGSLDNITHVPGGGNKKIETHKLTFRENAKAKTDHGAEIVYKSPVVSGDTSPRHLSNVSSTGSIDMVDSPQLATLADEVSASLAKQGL
Description: For tau overexpression, M9 minimal medium (10 mL) containing glucose (0.5%), ampicillin (50 μg/mL), chloramphenicol (12.5 μg/mL), and E. coli BL21 (DE3) cells bearing the pTARA plasmid, which carries the RNA polymerase gene of the T7 phage (T7RP) under control of the PBAD promoter, and subsequent transformation with the pRKT42 vector were used instead. In this case, the overnight culture for a 1:500 dilution was added to fresh M9 minimal medium containing glucose (0.5%), chloramphenicol (12.5 μg/mL), ampicillin (50 μg/mL), and Th-S (250 µM).
as §1, §2

[2] = PAMPA-BBB, drugs used for assay validation
Description: The parallel artificial membrane permeability assay for the blood–brain barrier (PAMPA-BBB) [41] was used to assess the in vitro brain permeability of the new compounds. For the assay, the compounds were dissolved in mixtures of PBS and ethanol (70:30).

T1 sequence (P56817 46-501): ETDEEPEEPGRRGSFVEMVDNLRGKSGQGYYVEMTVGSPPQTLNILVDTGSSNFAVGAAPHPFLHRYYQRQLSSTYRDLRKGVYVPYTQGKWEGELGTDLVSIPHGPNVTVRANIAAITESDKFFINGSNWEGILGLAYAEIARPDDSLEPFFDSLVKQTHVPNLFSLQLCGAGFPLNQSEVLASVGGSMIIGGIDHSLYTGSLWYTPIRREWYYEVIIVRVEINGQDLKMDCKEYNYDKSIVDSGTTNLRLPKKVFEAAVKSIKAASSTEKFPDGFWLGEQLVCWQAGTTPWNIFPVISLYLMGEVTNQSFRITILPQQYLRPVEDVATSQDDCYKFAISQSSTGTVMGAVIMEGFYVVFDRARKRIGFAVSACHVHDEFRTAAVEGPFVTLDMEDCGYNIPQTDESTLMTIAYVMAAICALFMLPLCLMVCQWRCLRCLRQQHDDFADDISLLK

## C[C@H]1O[C@@H](O[C@H]2[C@@H](O)C[C@H](O[C@H]3[C@@H](O)C[C@H](O[C@H]4CC[C@@]5(C)[C@H](CC[C@@H]6[C@@H]5C[C@@H](O)[C@]5(C)[C@@H](C7=CC(=O)OC7)CC[C@]65O)C4)O[C@@H]3C)O[C@@H]2C)C[C@H](O)[C@@H]1O [digoxin, reference compound]
physchem
  solubility at 2 h: 86.3 µM (≈ 67.4 µg/mL)

## O=c1c(O)c(-c2cc(O)c(O)c(O)c2)oc2cc(O)cc(O)c12 [Myr, myricetin, reference compound]
[1]
  IC50: 4.18 ± 0.5 µM

## O=C(NCCCCCCCCNc1c2c(nc3cc(Cl)ccc13)CCCC2)c1ccc2nc(-c3ccc(Cl)cc3)c3c(c2c1)NCCC3 [DP128, reference compound]
Aβ42 aggregation
  Aβ42 Aggregation % inh. @10 µM: 78.1 ± 1.7%
Tau aggregation
  Tau Aggregation % inh. @10 µM: 69.9 ± 0.7%

## CC(=O)[C@H]1CC[C@H]2[C@@H]3CCC4=CC(=O)CC[C@]4(C)[C@H]3CC[C@]12C [Progesterone, reference compound]
physchem; Solubility
  solubility at 2 h: 5.9 µM (≈ 1.86 µg/mL)

## CN1C(C(=O)Nc2ccccn2)=C(O)c2ccccc2S1(=O)=O [Piroxicam, reference compound]
[2]
  Experimental Pe Value: 2.2 ± 0.1 10^−6 cm s^−1

Reference: PMC11359831, “Stepwise Structural Simplification of the Dihydroxyanthraquinone Moiety of a Multitarget Rhein-Based Anti-Alzheimer Lead to Improve Drug Metabolism and Pharmacokinetic Properties” (Pharmaceutics, 2024)
